In US20090143392A1, “Methods of Treating Obesity and Metabolic Disorders” (ELBION GMBH, priority 2007, published 2009):

How the values were obtained:
PDE10 from rat striatum = molecular target: T1, PDE10 from rat striatum (Rattus norvegicus, UniProt Q9QYJ6); assay: Inhibition of PDE10 from rat striatum; type: biochemical; details: 0.1 μM [3H]-cAMP, 37° C., 30 minutes
T1 construct: 0.5 g of the isolated and frozen striatum was homogenised; from tissue; host or cells: rat striatum, ion-exchange FPLC fractions with PDE10 activity
T1 sequence (Q9QYJ6 1-794): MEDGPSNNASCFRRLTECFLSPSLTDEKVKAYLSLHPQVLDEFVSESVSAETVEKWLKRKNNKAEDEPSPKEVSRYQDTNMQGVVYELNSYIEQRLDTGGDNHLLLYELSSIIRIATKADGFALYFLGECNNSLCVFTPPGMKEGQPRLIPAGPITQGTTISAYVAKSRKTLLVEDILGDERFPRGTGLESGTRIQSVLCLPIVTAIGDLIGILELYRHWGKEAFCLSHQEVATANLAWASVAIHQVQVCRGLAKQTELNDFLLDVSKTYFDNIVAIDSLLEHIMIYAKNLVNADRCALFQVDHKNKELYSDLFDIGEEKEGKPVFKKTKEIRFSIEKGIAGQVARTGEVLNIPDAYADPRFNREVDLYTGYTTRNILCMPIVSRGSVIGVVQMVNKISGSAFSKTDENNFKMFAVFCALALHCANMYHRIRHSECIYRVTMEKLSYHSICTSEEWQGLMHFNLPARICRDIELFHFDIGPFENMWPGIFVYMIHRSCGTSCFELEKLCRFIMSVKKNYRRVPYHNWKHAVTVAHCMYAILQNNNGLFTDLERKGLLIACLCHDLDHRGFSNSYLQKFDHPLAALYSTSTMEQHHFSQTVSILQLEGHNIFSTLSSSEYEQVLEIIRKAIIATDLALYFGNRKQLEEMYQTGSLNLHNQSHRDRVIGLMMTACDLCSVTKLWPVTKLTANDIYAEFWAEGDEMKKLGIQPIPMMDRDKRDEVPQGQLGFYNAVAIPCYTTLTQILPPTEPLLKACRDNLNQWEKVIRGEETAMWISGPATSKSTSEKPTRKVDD
Procedure: (§1) Phosphodiesterase isoenzyme 10 (PDE10) activity was determined in preparations of rat, pig and guinea pig striatum respectively. Striatum from male Wistar rats (180-200 g), male hybrid pigs (150 kg) and male guinea pigs (CRL (HA), 500 g) respectively were collected and frozen at −70° C.
(§2) For the enzymatic testing of PDE10 activity 0.5 g of the isolated and frozen striatum was homogenised in 10 ml 50 mM Tris/Mg-buffer at 4° C. and centrifuged for one hour at 100000 g.
(§3) Nonspecific activity was tested without the enzyme. […] For determination of IC50 values the Hill-plot, 2-parameter-model, was used.

PDE10 from pig striatum = molecular target: T2, PDE10 from pig striatum (Sus scrofa, UniProt A0A287B941); assay: Inhibition of PDE10 from pig striatum; type: biochemical; details: 0.1 μM [3H]-cAMP, 37° C., 30 minutes
T2 construct: "Striatum from male hybrid pigs (150 kg)"
Procedure: Phosphodiesterase isoenzyme 10 (PDE10) activity was determined in preparations of human recombinant PDE10A and PDE10 from pig striatum, respectively.
Striatum from male hybrid pigs (150 kg) were collected and frozen at −70° C.
At the day of preparation 0.5 g striatum was homogenised in 10 ml 50 mM Tris/Mg-buffer at 4° C. and centrifuged for one hour at 100000 g.
as §3, §1, §2

[1] = molecular target: PDE10 from guinea pig striatum (Cavia porcellus, UniProt A0A286XN47); assay: Inhibition of PDE10 from guinea pig striatum; type: biochemical; details: 0.1 μM [3H]-cAMP, 37° C., 30 minutes
Procedure: as §1, §2, §3

MK-801-induced psychosis = assay: MK-801-induced psychosis: hyperactivity and stereotyped sniffing; type: in vivo; details: female Wistar rats, MK-801 0.1 mg/kg i.p. 10 min before test, compound 30 min prior, recorded 1 h; for dose that significantly reversed MK-801-induced hyperactivity / dose that significantly reversed MK-801-induced stereotyped sniffing: p.o.
Procedure: Female Wistar rats (Crl: (WI) BR, Charles River, Sulzfeld, Germany) weighing 150 to 180 g were used for the MK-801-induced psychosis. Animals were housed under standard conditions in groups of five on a 12 h light/dark cycle (light on at 0600 h) with ad libitum access to food (Pellets, ssniff M/R 15, Spezialdiät GmbH, Soest/Westfalen) and water.
MK-801 (dizocilpine, MW 337.37) was obtained by Tocris, distributed by Biotrend Chemikalien GmbH, Köln, Germany.
Hydroxyethylcellulose was solved in distilled water.
MK-801 was solved in saline so that an administration volume of 0.5 ml/100 g was reached. The suspensions and solution were placed on a magnetic stirrer before and during dosing procedures.
The behaviour induced by the NMDA antagonist MK-801 is generally accepted as a rat model of psychosis. MK-801 induces stereotyped sniffing, hyperactivity and ataxia in rats after intraperitoneal administration.
Locomotor activity of the rats was recorded by the MotiTest Apparatus (TSE, Bad Homburg, Germany). The test area consisted of a squared arena (45×45 cm) with protective plexiglass walls (20 cm of height) where rats could freely move. Horizontal movements were recorded by 32 infrared photocells arranged along the bottom of each wall of the arena. The activity [sec] was measured by the computer program “ActiMot” (TSE, Bad Homburg, Germany).
Stereotyped sniffing was scored by the experimenter every five minutes for one hour (12 intervals) according to the method described by Andine et al. (1999). The scores of the 12 intervals were summed up at the end of the recording time.
The day of experiment the female rats were placed in the laboratory and received the test compound or vehicle at the appropriate time prior to test. MK-801 0.1 mg/kg was intraperitoneally administered 10 minutes prior to test.
At the beginning of the test the rats were placed in the centre of the squared arena of the MotiTest apparatus. Behaviour of the rats was recorded for one hour. After each run animals were removed and the boxes thoroughly cleaned and dried.
Results were analysed by one way analysis of variance (ANOVA). Tukey test was used for individual comparison. P<0.05 was regarded as significant.

[2] = test system: dopamine concentration in rat brain; details: cited from earlier work
[3] = test system: apomorphine-induced stereotypies; details: rats; cited from earlier work
[4] = test system: haloperidol-induced catalepsy; details: rats; cited from earlier work

Sequence of PDE10 from guinea pig striatum (A0A286XN47 1-773): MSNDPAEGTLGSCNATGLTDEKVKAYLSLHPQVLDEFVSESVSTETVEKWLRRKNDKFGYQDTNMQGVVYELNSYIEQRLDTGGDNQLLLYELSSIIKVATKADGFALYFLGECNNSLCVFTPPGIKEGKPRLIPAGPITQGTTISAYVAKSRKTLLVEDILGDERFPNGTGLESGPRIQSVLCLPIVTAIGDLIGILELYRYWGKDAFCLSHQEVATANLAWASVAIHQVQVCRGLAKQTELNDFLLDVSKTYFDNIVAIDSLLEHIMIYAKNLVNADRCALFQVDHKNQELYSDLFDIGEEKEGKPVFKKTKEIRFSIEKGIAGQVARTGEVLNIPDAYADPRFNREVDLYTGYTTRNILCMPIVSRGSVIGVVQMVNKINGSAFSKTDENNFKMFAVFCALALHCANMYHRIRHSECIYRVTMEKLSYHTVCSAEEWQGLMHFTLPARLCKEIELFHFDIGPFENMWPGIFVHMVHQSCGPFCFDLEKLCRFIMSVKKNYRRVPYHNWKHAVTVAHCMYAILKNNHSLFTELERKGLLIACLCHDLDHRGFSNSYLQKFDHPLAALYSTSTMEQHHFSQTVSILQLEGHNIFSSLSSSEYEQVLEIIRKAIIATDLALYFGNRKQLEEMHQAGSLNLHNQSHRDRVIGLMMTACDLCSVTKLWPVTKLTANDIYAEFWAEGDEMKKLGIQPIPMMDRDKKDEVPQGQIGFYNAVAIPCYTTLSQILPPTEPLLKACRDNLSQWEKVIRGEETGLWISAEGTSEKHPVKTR

| Compound | IC50 (PDE10 from rat striatum) [nM] | IC50 (PDE10 from pig striatum) [nM] | other results |
| --- | --- | --- | --- |
| 1-ethyl-4-(N-formyl-amino)-8-methoxy-3-methyl-imidazo[1,5-a]pyrido[3,2-e]pyrazine [Example 36b] | 241 | 80 |  |
| 4-(N-formyl-amino)-8-methoxy-3-methyl-1-propyl-imidazo[1,5-a]pyrido[3,2-e]pyrazine [Example 37b] | 50 | 29 |  |
| 4-amino-1-(2-chloro-phenyl)-8-methoxy-3-methyl-imidazo[1,5-a]pyrido[3,2-e]pyrazine [Example 11b] |  | 0.5 | dose that significantly reversed MK-801-induced hyperactivity (MK-801-induced psychosis): ≥ 0.5 mg/kg; dose that significantly reversed MK-801-induced stereotyped sniffing (MK-801-induced psychosis): ≥ 0.5 mg/kg |
| 4-amino-3-methyl-1-propyl-imidazo[1,5-a]pyrido[3,2-e]pyrazine [Example 4b] | 57 | 27 |  |
| 4-amino-8-methoxy-3-methyl-1-phenyl-imidazo[1,5-a]pyrido[3,2-e]pyrazine [Example 10b] | 5 | 3 |  |
| 4-cyano-8-methoxy-3-methyl-1-ethyl-imidazo[1,5-a]pyrido[3,2-e]pyrazine [Example 30a] |  | 20 | IC50 [1]: 51 nM; dose that significantly reversed MK-801-induced hyperactivity (MK-801-induced psychosis): ≥ 10 mg/kg; dose that significantly reversed MK-801-induced stereotyped sniffing (MK-801-induced psychosis): ≥ 10 mg/kg |
| 4-cyano-8-methoxy-3-methyl-1-propyl-imidazo[1,5-a]pyrido[3,2-e]pyrazine [Example 29a] |  |  | IC50 [1]: 18 nM; dose that significantly reversed MK-801-induced stereotyped sniffing (MK-801-induced psychosis): ≥ 5 mg/kg |
| 8-methoxy-3-methyl-1-propyl-imidazo[1,5-a]pyrido[3,2-e]pyrazine [Example 35a] | 61 | 40 | dose that significantly reversed MK-801-induced hyperactivity (MK-801-induced psychosis): 30 mg/kg; dose that significantly reversed MK-801-induced stereotyped sniffing (MK-801-induced psychosis): ≥ 30 mg/kg |
| COc1ccc(Cc2nccc3cc(OC)c(OC)cc23)cc1OC [Papaverine] |  |  | effect on dopamine concentration in rat brain [2]: reducing dopamine concentration in rat brain; effect on apomorphine-induced stereotypies [3]: reduces apomorphine-induced stereotypies; effect on haloperidol-induced catalepsy [4]: increases haloperidol-induced catalepsy |

Continued, in another order:

| IC50 (PDE10 from rat striatum) [nM] | IC50 (PDE10 from pig striatum) [nM] | Compound | other results |
| --- | --- | --- | --- |
|  | 2 | 3,4-dimethyl-8-(2-propyl-4-methyl-imidazol-1-yl)-methoxy-1-propyl-imidazo[1,5-a]pyrido[3,2-e]pyrazine [Example 58a] | IC50 [1]: 4 nM |
|  | 6 | 3,4-dimethyl-8-methoxy-1-phenyl-imidazo[1,5-a]pyrido[3,2-e]pyrazine [Example 47a] | IC50 [1]: 15 nM |
| 220 |  | 4-(N-acetyl-amino)-1-ethyl-8-methoxy-3-methyl-imidazo[1,5-a]pyrido[3,2-e]pyrazine [Example 40b] |  |
| 95 | 41 | 4-(N-acetyl-amino)-8-methoxy-3-methyl-1-phenyl-imidazo[1,5-a]pyrido[3,2-e]pyrazine [Example 42b] |  |
| 8 | 4 | 4-chloro-8-methoxy-3-methyl-1-propyl-imidazo[1,5-a]pyrido[3,2-e]pyrazine [Intermediate A1] |  |
| 563 | 189 | 4-ethoxycarbonylamino-8-methoxy-3-methyl-1-propyl-imidazo[1,5-a]pyrido[3,2-e]pyrazine [Example 63a] |  |
| 2410 | 896 | 8-methoxy-3-methyl-4-(N-propionyl-amino)-1-propyl-imidazo[1,5-a]pyrido[3,2-e]pyrazine [Example 43b] |  |
| 11 | 5 | 8-methoxy-3-methyl-4-methylsulfonylamino-1-propyl-imidazo[1,5-a]pyrido[3,2-e]pyrazine [Example 69a] | IC50 [1]: 11 nM |
| 35 | 6 | 8-methoxy-4-methoxycarbonylamino-3-methyl-1-propyl-imidazo[1,5-a]pyrido[3,2-e]pyrazine [Example 62a] | IC50 [1]: 26 nM; dose that significantly reversed MK-801-induced hyperactivity (MK-801-induced psychosis): 5 mg/kg; dose that significantly reversed MK-801-induced stereotyped sniffing (MK-801-induced psychosis): 5 mg/kg |
| 72 |  | CCCc1nc(C)c2c(N(S(C)(=O)=O)S(C)(=O)=O)nc3ccc(OC)nc3n12 [Example 70a, 4-(N,N-bis-methylsulfonyl)-amino-8-methoxy-3-methyl-1-propyl-imidazo[1,5-a]pyrido[3,2-e]pyrazine] |  |
| 159 | 108 | CCCc1nc(C)c2n1-c1nc(OC)ccc1NC2 [Example 91a, 8-methoxy-3-methyl-1-propyl-4,5-dihydro-imidazo[1,5-a]pyrido[3,2-e]pyrazine] | melting point: 157 to 160 °C; dose that significantly reduced MK-801-induced hyperactivity (MK-801-induced psychosis; i.p.): ≥ 15 mg/kg; dose that significantly reduced MK-801-induced stereotyped sniffing (MK-801-induced psychosis; i.p.): ≥ 15 mg/kg |
| 335 | 222 | CCCc1nc(C)c2n1-c1nc(OC)ccc1N(C(C)=O)C2 [Example 95a, 5-acetyl-8-methoxy-3-methyl-1-propyl-4,5-dihydro-imidazo[1,5-a]pyrido[3,2-e]pyrazine] | dose that significantly reversed MK-801-induced hyperactivity (MK-801-induced psychosis): 30 mg/kg; dose that significantly reversed MK-801-induced stereotyped sniffing (MK-801-induced psychosis): 30 mg/kg |
| 171 | 97 | CCc1nc(C)c2c(Cl)nc3cccnc3n12 [Intermediate A11] | melting point: 117 to 120 °C |
